Test results reported in patent US20230250417A1, “METHODS FOR DETECTING RNA TRANSLATION” (Eclipse Bioinnovations, Inc., priority 2021, published 2023).
“Also recorded” adds a separate entry of the source.

How the values were obtained:
[1] = tested on: non-TOP motif containing gene, PARP1; experiment: Ribo-ABC (oligo conjugated antibody) ribosome-bound RNA read counts, genome track view; format: cell-based; conditions: ribosomal proteins RPS2, RPS3, RPS14, FIG. 2 bottom panel
Description: (§1) Three different ribosomal proteins were used RPS2, RPS3, RPS14.
(§2) This example provides a protocol for a Ribo-ABC experiment according to an embodiment of the disclosure.
(§3) First, the tissue culture plate was placed on leveled ice or on a cooling block pre-chilled to 4° C. Second, the above (plate plus ice or cooling block) was placed into the UV cross-linker. Third, the tissue culture plate lid was removed for cross-linking. Fourth, cross-link at 254-nm UV with an energy setting of 400 mJoules/cm^2. Fifth, while keeping the cells on ice, a cell scraper (Corning, cat. #CLS3010-10EA) was used to scrape the plate. Sixth, the cells were transferred to a 15 mL conical tube. Seventh, the plate was washed once with 5 mL of chilled PBS and added to the same 15 mL tube. Eight, gently resuspended until the sample was homogeneous. Ninth, the 15 mL conical tube was centrifuged at 200×g for 3 minutes at 4° C. Tenth, the sample was aspirated and discarded supernatant. Eleventh, the desired amount of cells for flash freezing was resuspended in chilled PBS (typically 10×10^6 cells per mL). Twelfth, the sample was transferred into 1.5 mL LoBind tubes Tubes (typically 1 mL of 10×10^6 cells per mL). Thirteenth, the sample was spun down at 200×g for 3 minutes at 4° C. Fourteenth, the supernatant was aspirated, and the cell pellets were frozen quickly by submerging the 1.5 mL LoBind tubes in liquid nitrogen. […]

[2] = tested on: TOP motif containing gene, GAPDH; experiment: as above; format: cell-based; conditions: ribosomal proteins RPS2, RPS3, RPS14, FIG. 2 top panel
Description: as §1, §2, §3

gene FUS = experiment: Bead barcoded multiplexed RBP/RPS2 binding, genome track view (IGV) with normalized read counts; format: cell-based, human; conditions: cells treated with 200 nM Risdiplam for 2 hours vs DMSO control; FIG. 7
Description: FIG. 7 depicts an IGV screenshot of the gene FUS with normalized read counts for 7 different RBPs and the translation component protein RPS2. Two conditions are shown; one DMSO control and the other cells treated with 200 nM Risdiplam. […] This example illustrates a protocol for a bead barcoded experiment for detecting RNA modifications from cells with RBPs according to an embodiment of the disclosure. The buffers described below are the same as mentioned above with respect to Example 2 unless explicitly stated otherwise. First, Trypan blue stain (Thermo Fisher Scientific, cat. #15250061) or equivalent live cell counting assay was used to valuate cell viability. Next, cell viability was reviewed to be sure it was >95% to ensure intact RNA. Cells were grown to a proper confluence, in most cases grow cells to 75% confluence. Some cells were treated with 200 nM Risdiplam for 2 hours prior to harvesting. First, resuspend anti-rabbit Dynabeads by vortexing or pipetting up and down several times. Second, transfer 500 μL of beads (enough for 20 samples) into a 1.5 mL Eppendorf tube and place tube on DynaMag-2. Third, Remove the supernatant and wash beads thrice with 500 μL PBS, resuspending beads with each wash. Fourth, remove beads from magnet, resuspend beads in 500 μL PBS, add 1.65 μL DBCO-NHS (10 mM in DMSO), and rotate tube at room temperature for 1 hour. […]

Torin
change in read counts of PARP1 upon Torin treatment [1]: no change in read counts | change in read counts of GAPDH upon Torin treatment [2]: reduced read counts

Cc1cn2nc(-c3cc(=O)n4cc(N5CCNC6(CC6)C5)ccc4n3)cc(C)c2n1 [Risdiplam]
change in binding on gene FUS (7 RBPs and RPS2) versus DMSO control (gene FUS): a change in binding across the two conditions; also recorded: a difference observed between the two conditions
